Test: Pharmacokinetic parameters following intravenous administration in rats
Assay type: in vivo
Details: rat; for MRT / half-life: male, Wistar, plasma, iv
Description: The pharmacokinetic parameters of the substance are determined in male CD-1 mice, male Wistar rats and female beagles. The administration volume is 10 ml/kg for mice, 5 ml/kg for rats and 0.5 ml/kg for dogs. Intravenous administration is via a formulation of species-specific plasma/DMSO (99/1) in the case of mice and rats and via water/PEG400/ethanol (50/40/10) in the case of dogs. For easier removal of blood, a silicone catheter is inserted into the right Vena jugularis externa of the rats before the administration of substance. The surgical intervention takes place one day prior to the experiment with isofluran anaesthesia and administration of an analgetic (atropine/rimadyl (3/1) 0.1 ml s.c.). Substance administration is as i.v. bolus in the case of mice, as i.v. bolus or via a 15-minute infusion in the case of rats and via a 15-minute infusion in the case of dogs. Removal of blood is after 0.033, 0.083, 0.17, 0.5, 1, 2, 3, 4, 6, 7 and 24 hours in the case of mice and, after a 15-minute infusion, after 0.083, 0.25, 0.28 0.33, 0.42, 0.75, 1, 2, 3, 4, 6, 7 and 24 hours in the case of dogs and rats and after an i.v. bolus administration, after 0.033, 0.083, 0.17, 0.5, 1, 2, 3, 4, 6, 7 and 24 hours in the case of rats. For all species, oral administration of the dissolved substance via gavage is carried out based on a water/PEG400/ethanol formulation (50/40/10). Here, the removal of blood from rats and dogs is after 0.083, 0.17, 0.5, 0.75, 1, 2, 3, 4, 6, 7 and 24 hours. The blood is removed into heparinized tubes. The blood plasma is then obtained by centrifugation; if required, it can be stored at −20° C. until further processing.
An internal standard (ZK 228859) is added to the unknown samples, calibration samples and QCs, and the protein is precipitated using excess acetonitrile. After addition of an ammonium acetate buffer (0.01 M, pH 6.8 (Example 1/3) or pH 3.0 (Example 2)) and subsequent vortexing, the mixture is centrifuged at 1000 g and the supernatant is examined by LC-MS/MS (API 4000, AB Sciex). Chromatographic separation is carried out on an Agilent 1100-HPLC. The injection volume is 10 μl. The separation column used is a Phenomenex Luna 5μ C8(2) 100 A 50×2 mm, adjusted to a temperature of 40° C. For Example 1, a binary mobile phase gradient at 400 μl/min is used (A: 0.01M ammonium acetate buffer pH 6.8, B: 0.1% formic acid in acetonitrile): 0 min (90% A), 1 min (90% A), 3.5 min (15% A), 4.5 min (15% A), 4.6 min (90% A), 7 min (90% A). For Example 2, a binary mobile phase gradient at 500 μl/min is used instead (A: 0.01M ammonium acetate buffer pH 3.0, B: 0.1% formic acid in acetonitrile): 0 min (90% A), 1.5 min (90% A), 3.5 min (10% A), 4.5 min (10% A), 5 min (90% A), 7 min (90% A). For Example 3, a binary mobile solvent gradient at 500 μl/min is used instead (A: 0.01M ammonium acetate buffer pH 6.8, B: 0.1% formic acid in acetonitrile): 0 min (90% A), 1 min (90% A), 3 min (10% A), 4 min (10% A), 4.5 min (90% A), 6 min (90% A). The temperature of the Turbo V ion source is 500° C. The following MS instrument parameters are used: curtain gas 20 units (Example 1), 16 units (Example 2) or 15 units (Example 3), ion spray voltage 5 kV (Example 1/2) or 4.5 units (Example 3), gas 1 35 units (Example 1/3) or 25 units (Example 2), gas 2 30 units, CAD gas 4 units (Example 1/3) or 3 units (Example 2). The substances are quantified by peak heights or areas using extracted ion chromatograms of specific MRM experiments.
The plasma concentration/time plots determined are used to calculate the pharmacokinetic parameters such as AUC, Cmax, MRT (mean residence time), t1/2 (half life) and CL (clearance) employing the validated pharmacokinetic calculation programs KinEx (Vers. 2.5 and 3).
As the substance quantification is carried out in plasma, it is necessary to determine the blood/plasma distribution of the substance to be able to adjust the pharamacokinetic parameters in an appropriate manner. […]

[1] = 0.3 mg/kg i.v. bolus administration
[2] = 0.3 mg/kg i.v., 15-minute infusion

MRT [1]	half-life [1]	AUCnorm [1]	CLblood [1]	MRT [2]	half-life [2]	AUCnorm [2]	CLblood [2]	SMILES
2.3 h	1.9 h	1.36 kg·h/L	1.02 lh/kg					COC(=O)N(CC(F)(F)F)c1c(N)nc(-c2nn(Cc3ccccc3F)c3ncc(F)cc23)nc1N [Example 3, Methyl {4,6-diamino-2-[5-fluoro-1-(2-fluorobenzyl)-1H-pyrazolo[3,4-b]pyridin-3-yl]pyrimidin-5-yl}(2,2,2-trifluoroethyl)carbamate]
2.3 h	1.7 h	1.79 kg·h/L	0.53 lh/kg					COC(=O)N(C)c1c(N)nc(-c2nn(Cc3ccccc3F)c3ncc(F)cc23)nc1N [Example 2]
				4.1 h	3.4 h	4.36 kg·h/L	0.29 lh/kg	COC(=O)Nc1c(N)nc(-c2nn(Cc3ccccc3F)c3ncc(F)cc23)nc1N [Example 1, Methyl {4,6-diamino-2-[5-fluoro-1-(2-fluorobenzyl)-1H-pyrazolo[3,4-b]pyridin-3-yl]pyrimidin-5-yl}carbamate]

— patent publication US11439642B2 (Adverio Pharma GmbH, priority 2010, dated 2022)
